Laboratory results reported in the NIST ThermoML archive (doi:10.1021/acs.jced.7b00581).
± gives the expanded uncertainty stated by the source.

Details: 100 kPa, Liquid; for speed of sound: Single path-length method; for mass density: Vibrating tube method

CCCO [propan-1-ol]
Details | mass density [kg/m3] | speed of sound [m/s]
288.15 K | 807.834 ± 0.15 | 1242.3 ± 0.42
298.15 K | 799.597 ± 0.15 | 1205.3 ± 0.41
308.15 K | 791.399 ± 0.16 | 1170.4 ± 0.39
318.15 K | 783.121 ± 0.16 | 1137.3 ± 0.39
